{"source": "ChEMBL document CHEMBL4152226", "about": "“Novel Mannich bases of α- and γ-mangostins: Synthesis and evaluation of antioxidant and membrane-protective activity” (Eur J Med Chem, 2018)", "key": {"[1]": {"test_system": "Erythrocyte", "experiment": "Protection against H2O2-induced oxidative stress in mouse RBC assessed as inhibition of hemolysis at 1 uM pretreated for 30 mins followed by H2O2 addition and measured after 5 hrs by malondialdehyde indicator based assay relative to control", "type": "functional"}, "[2]": {"experiment": "Antioxidant activity assessed as DPPH radical scavenging activity at 10 to 100 uM incubated in dark for 30 mins", "type": "functional"}, "[3]": {"test_system": "Erythrocyte", "experiment": "Hemolytic activity against mouse RBC at 30 uM measured after 5 hrs by malondialdehyde indicator based assay", "type": "ADME, cell-based"}, "[4]": {"test_system": "Erythrocyte", "experiment": "Antioxidant activity against H2O2-induced oxidative stress in mouse RBC assessed as inhibition of LPO accumulation at 1 uM pretreated for 30 mins followed by H2O2 addition and measured after 4 hrs by TBARS assay relative to control", "type": "functional"}, "[5]": {"test_system": "Erythrocyte", "experiment": "Antioxidant activity against H2O2-induced oxidative stress in mouse RBC assessed as inhibition of LPO accumulation at 10 uM pretreated for 30 mins followed by H2O2 addition and measured after 4 hrs by TBARS assay relative to control", "type": "functional"}, "[6]": {"test_system": "Erythrocyte", "experiment": "Protection against H2O2-induced oxidative stress in mouse RBC assessed as inhibition of hemolysis at 10 uM pretreated for 30 mins followed by H2O2 addition and measured after 5 hrs by malondialdehyde indicator based assay relative to control", "type": "functional"}, "[7]": {"experiment": "Metal chelating activity assessed as compound-Fe2+ complex formation at 10 uM after 10 mins by FerrozineTM iron reagent based assay"}, "[8]": {"test_system": "Erythrocyte", "experiment": "Antioxidant activity against H2O2-induced oxidative stress in mouse RBC assessed as inhibition of LPO accumulation at 0.05 uM pretreated for 30 mins followed by H2O2 addition and measured after 4 hrs by TBARS assay relative to control", "type": "functional"}, "[9]": {"test_system": "Erythrocyte", "experiment": "Protection against H2O2-induced oxidative stress in mouse RBC assessed as inhibition of hemolysis at 0.05 uM pretreated for 30 mins followed by H2O2 addition and measured after 5 hrs by malondialdehyde indicator based assay relative to control", "type": "functional"}, "[10]": {"experiment": "Antioxidant activity assessed as DPPH radical scavenging activity at 100 uM incubated in dark for 30 mins relative to control", "type": "functional"}, "[11]": {"experiment": "Hemolytic activity against mouse RBC assessed as hemolysis measured after 5 hrs by malondialdehyde indicator based assay relative to control", "type": "ADME, cell-based, Erythrocyte", "conditions": "mouse red blood cells (erythrocytes), read-out: Activity"}}, "note": "Activity calls are given as the source filed them. No cut-off for these calls is given here.", "data": [{"molecule": "COc1c(O)c(CN2CCCCCC2)c2oc3c(CN4CCCCCC4)c(O)c(CC=C(C)C)c(O)c3c(=O)c2c1CC=C(C)C", "values": [{"measurement": "inhibition at 1 µM", "setting": "[1]", "result": 35, "unit": "%"}, {"measurement": "Activity", "setting": "[2]", "result": "Active"}, {"measurement": "Activity", "setting": "[3]", "result": "Non-Toxic"}, {"measurement": "inhibition at 1 µM", "setting": "[4]", "result": 34.8, "unit": "%"}, {"measurement": "inhibition at 10 µM", "setting": "[5]", "result": 54.1, "unit": "%"}, {"measurement": "inhibition at 10 µM", "setting": "[6]", "result": 19, "unit": "%"}]}, {"molecule": "CC(C)=CCc1c(O)c(CN2CCCCCC2)c2oc3c(CN4CCCCCC4)c(O)c(O)c(CC=C(C)C)c3c(=O)c2c1O", "values": [{"measurement": "inhibition at 1 µM", "setting": "[1]", "result": 9, "unit": "%"}, {"measurement": "Activity", "setting": "[7]", "result": "Active"}, {"measurement": "Activity", "setting": "[2]", "result": "Active"}, {"measurement": "Activity", "setting": "[3]", "result": "Non-Toxic"}, {"measurement": "inhibition at 0.05 µM", "setting": "[8]", "result": 69, "unit": "%"}, {"measurement": "inhibition at 10 µM", "setting": "[5]", "result": 71.5, "unit": "%"}, {"measurement": "inhibition at 0.05 µM", "setting": "[9]", "result": 74.3, "unit": "%"}]}, {"molecule": "COc1c(O)c(CN2CCCCCC2)c2oc3c(CN4CCOCC4)c(O)c(CC=C(C)C)c(O)c3c(=O)c2c1CC=C(C)C", "values": [{"measurement": "inhibition at 1 µM", "setting": "[1]", "result": 37.5, "unit": "%"}, {"measurement": "Activity", "setting": "[2]", "result": "Active"}, {"measurement": "Activity", "setting": "[3]", "result": "Non-Toxic"}, {"measurement": "inhibition at 1 µM", "setting": "[4]", "result": 56.1, "unit": "%"}, {"measurement": "inhibition at 10 µM", "setting": "[5]", "result": 33.6, "unit": "%"}, {"measurement": "inhibition at 10 µM", "setting": "[6]", "result": 17.7, "unit": "%"}]}, {"molecule": "COc1c(O)c(CN2CCOCC2)c2oc3c(CN4CCOCC4)c(O)c(CC=C(C)C)c(O)c3c(=O)c2c1CC=C(C)C", "values": [{"measurement": "inhibition at 1 µM", "setting": "[1]", "result": 75.6, "unit": "%"}, {"measurement": "Activity", "setting": "[2]", "result": "Active"}, {"measurement": "Activity", "setting": "[3]", "result": "Non-Toxic"}, {"measurement": "inhibition at 1 µM", "setting": "[4]", "result": 76.1, "unit": "%"}, {"measurement": "inhibition at 10 µM", "setting": "[5]", "result": 57.4, "unit": "%"}, {"measurement": "inhibition at 10 µM", "setting": "[6]", "result": 22, "unit": "%"}]}, {"molecule": "CC(C)=CCc1c(O)cc2oc3cc(O)c(O)c(CC=C(C)C)c3c(=O)c2c1O", "values": [{"measurement": "inhibition at 1 µM", "setting": "[1]", "result": 15.1, "unit": "%"}, {"measurement": "Activity", "setting": "[2]", "result": "Active"}, {"measurement": "Activity", "setting": "[3]", "result": "Non-Toxic"}, {"measurement": "inhibition at 0.05 µM", "setting": "[8]", "result": 72.8, "unit": "%"}, {"measurement": "inhibition at 10 µM", "setting": "[5]", "result": 68.1, "unit": "%"}, {"measurement": "inhibition at 0.05 µM", "setting": "[9]", "result": 85.9, "unit": "%"}]}, {"molecule": "COc1c(O)cc2oc3c(CN4CCCCCC4)c(O)c(CC=C(C)C)c(O)c3c(=O)c2c1CC=C(C)C", "values": [{"measurement": "inhibition at 1 µM", "setting": "[1]", "result": 27.6, "unit": "%"}, {"measurement": "Activity", "setting": "[7]", "result": "Active"}, {"measurement": "Activity", "setting": "[2]", "result": "Active"}, {"measurement": "Activity", "setting": "[3]", "result": "Non-Toxic"}, {"measurement": "inhibition at 1 µM", "setting": "[4]", "result": 51.2, "unit": "%"}, {"measurement": "inhibition at 10 µM", "setting": "[5]", "result": 48.9, "unit": "%"}, {"measurement": "inhibition at 10 µM", "setting": "[6]", "result": 10.8, "unit": "%"}]}, {"molecule": "COc1c(O)c(CN(C)C)c2oc3c(CN(C)C)c(O)c(CC=C(C)C)c(O)c3c(=O)c2c1CC=C(C)C", "values": [{"measurement": "inhibition at 1 µM", "setting": "[1]", "result": 41, "unit": "%"}, {"measurement": "Activity", "setting": "[2]", "result": "Active"}, {"measurement": "Activity", "setting": "[3]", "result": "Toxic"}, {"measurement": "inhibition at 1 µM", "setting": "[4]", "result": 56.1, "unit": "%"}, {"measurement": "inhibition at 10 µM", "setting": "[5]", "result": 58.2, "unit": "%"}, {"measurement": "inhibition at 10 µM", "setting": "[6]", "result": 66.3, "unit": "%"}]}, {"molecule": "CCCCNCc1c(O)c(CC=C(C)C)c(O)c2c(=O)c3c(CC=C(C)C)c(OC)c(O)c(CN(C)C)c3oc12", "values": [{"measurement": "inhibition at 1 µM", "setting": "[1]", "result": 36.8, "unit": "%"}, {"measurement": "Activity", "setting": "[2]", "result": "Active"}, {"measurement": "Activity", "setting": "[3]", "result": "Non-Toxic"}, {"measurement": "inhibition at 1 µM", "setting": "[4]", "result": 53.5, "unit": "%"}, {"measurement": "inhibition at 10 µM", "setting": "[5]", "result": 61.5, "unit": "%"}, {"measurement": "inhibition at 10 µM", "setting": "[6]", "result": 50, "unit": "%"}]}, {"molecule": "COc1c(O)cc2oc3c(CN(C)C)c(O)c(CC=C(C)C)c(O)c3c(=O)c2c1CC=C(C)C", "values": [{"measurement": "Activity", "setting": "[10]", "result": "13.1 to 16", "unit": "%"}, {"measurement": "hemolysis at 5 h", "setting": "[11]", "result": 63.1, "unit": "%"}]}, {"molecule": "COc1c(O)cc2oc3c(CN4CCOCC4)c(O)c(CC=C(C)C)c(O)c3c(=O)c2c1CC=C(C)C", "values": [{"measurement": "Activity", "setting": "[10]", "result": "13.1 to 16", "unit": "%"}]}, {"molecule": "CC(C)=CCc1c(O)c(CN2CCOCC2)c2oc3c(CN4CCOCC4)c(O)c(O)c(CC=C(C)C)c3c(=O)c2c1O", "values": [{"measurement": "inhibition at 1 µM", "setting": "[1]", "result": 6.9, "unit": "%"}, {"measurement": "Activity", "setting": "[7]", "result": "Active"}, {"measurement": "Activity", "setting": "[2]", "result": "Active"}, {"measurement": "Activity", "setting": "[3]", "result": "Non-Toxic"}, {"measurement": "inhibition at 0.05 µM", "setting": "[8]", "result": 78.5, "unit": "%"}, {"measurement": "inhibition at 10 µM", "setting": "[5]", "result": 68.8, "unit": "%"}, {"measurement": "inhibition at 0.05 µM", "setting": "[9]", "result": 79.6, "unit": "%"}]}, {"molecule": "CCCCNCc1c(O)c(CC=C(C)C)c(O)c2c(=O)c3c(CC=C(C)C)c(OC)c(O)cc3oc12", "values": [{"measurement": "inhibition at 1 µM", "setting": "[1]", "result": 46.4, "unit": "%"}, {"measurement": "Activity", "setting": "[2]", "result": "Active"}, {"measurement": "Activity", "setting": "[3]", "result": "Non-Toxic"}, {"measurement": "inhibition at 1 µM", "setting": "[4]", "result": 60.5, "unit": "%"}, {"measurement": "inhibition at 10 µM", "setting": "[5]", "result": 70.5, "unit": "%"}, {"measurement": "inhibition at 10 µM", "setting": "[6]", "result": 31.9, "unit": "%"}]}, {"molecule": "COc1c(O)cc2oc3c(CN4CCCCC4)c(O)c(CC=C(C)C)c(O)c3c(=O)c2c1CC=C(C)C", "values": [{"measurement": "Activity", "setting": "[10]", "result": "13.1 to 16", "unit": "%"}]}, {"molecule": "COc1c(O)cc2oc3c(CN4CCCC4)c(O)c(CC=C(C)C)c(O)c3c(=O)c2c1CC=C(C)C", "values": [{"measurement": "inhibition at 1 µM", "setting": "[1]", "result": 29.2, "unit": "%"}, {"measurement": "Activity", "setting": "[7]", "result": "Active"}, {"measurement": "Activity", "setting": "[2]", "result": "Active"}, {"measurement": "Activity", "setting": "[3]", "result": "Non-Toxic"}, {"measurement": "inhibition at 1 µM", "setting": "[4]", "result": 56.4, "unit": "%"}, {"measurement": "inhibition at 10 µM", "setting": "[5]", "result": 68.2, "unit": "%"}, {"measurement": "inhibition at 10 µM", "setting": "[6]", "result": 17.5, "unit": "%"}]}, {"molecule": "CC(C)=CCc1c(O)c(CN(C)C)c2oc3c(CN(C)C)c(O)c(O)c(CC=C(C)C)c3c(=O)c2c1O", "values": [{"measurement": "inhibition at 1 µM", "setting": "[1]", "result": 15.3, "unit": "%"}, {"measurement": "Activity", "setting": "[7]", "result": "Active"}, {"measurement": "Activity", "setting": "[2]", "result": "Active"}, {"measurement": "Activity", "setting": "[3]", "result": "Non-Toxic"}, {"measurement": "inhibition at 0.05 µM", "setting": "[8]", "result": 67.7, "unit": "%"}, {"measurement": "inhibition at 10 µM", "setting": "[5]", "result": 75.7, "unit": "%"}, {"measurement": "inhibition at 0.05 µM", "setting": "[9]", "result": 78, "unit": "%"}]}, {"molecule": "COc1c(O)cc2oc3cc(O)c(CC=C(C)C)c(O)c3c(=O)c2c1CC=C(C)C", "note": "[MANGOSTIN]", "values": [{"measurement": "inhibition at 1 µM", "setting": "[1]", "result": "60.2 to 60.9", "unit": "%"}, {"measurement": "Activity", "setting": "[2]", "result": "Active"}, {"measurement": "Activity", "setting": "[3]", "result": "Non-Toxic"}, {"measurement": "inhibition at 1 µM", "setting": "[4]", "result": "54.2 to 66.9", "unit": "%"}, {"measurement": "inhibition at 10 µM", "setting": "[5]", "result": "59.8 to 67", "unit": "%"}, {"measurement": "inhibition at 10 µM", "setting": "[6]", "result": "44.4 to 46.3", "unit": "%"}]}]}
